Experimental data reported in patent publication US6630124B1, “Combination therapy with VIP antagonist” (Ramot-University Authority for Applied Research and …, priority 1998, dated 2003).
Where no end group is shown, it is not given here. [ ]: non-standard residue; d: D form. The star is where a group is joined. Stearoyl = CCCCCCCCCCCCCCCCCC(=O)*; Nle = CCCC[C@H](N)C(=O)O

How the values were obtained:
[1] = system: NCI-H727 non-small cell lung cancer (carcinoid); experiment: MTS cell proliferation assay, SNH and chemotherapy; assay type: cell-based; details: for nature of the combined effect with SNH: combination with SNH; for reduction of the IC50 of the chemotherapeutic agent by SNH: 5 μM SNH, NCI-H727
Method: NCI-H727 and LNCaP were grown in RPMI 1640 medium supplemented with 10% heat inactivated FCS, L-glutamine and antibiotics. HT-29 and CT-26 were grown in DMEM medium supplemented with 10% heat-inactivated FCS (fetal calf serum), L-glutamine and antibiotics. The cells were cultured in 5% CO2/95% air at […] and used during their exponential growth phase. Routinely, the cells which are adherent, were split when a subconfluent monolayer was formed. In different experiments, various concentration of FCS were used. For growth inhibition experiments, subconfluent adherent cells were washed with PBS and treated with trypsin/versene. The cells were pelleted and resuspended in medium to a final concentration of 75,000 cells/mL for NCI-H727. 50,000 cells/mL for LNCaP and HT-29 and 25000 cells/mL for CT-26. These different concentrations were used in order to avoid confluence in the wells at the end of the experiment and correspond to the different doubling times of the cell lines. On day 0, cells suspensions […] were dispensed using a multi-channel pipet into the individual wells of a 96-well tissue culture plate (Nuncion, Nunc Brand Products). […] Cells were incubated for 24 hours in a humidified atmosphere of 95% air/5% CO2 at 37° C. before treatment. On day 1, the cells were treated with different drugs and schedules and maintained under the same conditions. On day 4, viable cell number was determined by a modified MTT assay i.e., MTS non-radioactive cell proliferation assay (Promega). […] Results were finally expressed as percentage of the control, which was obtained from the samples with no drug treatment. Dose-response curves were plotted using a Sigma-Plot software and statistically analyzed using Student test. To determine the effect of the lipophilic VIP antagonist SNH on cell proliferation, cells plated in 96-well microplates for 24 hours as described, were treated with various concentrations of SNH. The peptide was diluted in PBS and […] of the peptide solution was added to each well for a final concentration of the peptide between 10^−510^−9 M. The solvent was added to the control wells. […] A dose-response curve was obtained at concentrations ranging from 2 μM-10 μM (see, FIG. 2). […] The effects of an 8 hours treatment were slightly less, showing that most of the effect is in the initial hours of exposure and much more dose than time dependent. […] For the experiments with the combinations of VIP antagonists and chemotherapeutic agents, on day 0, the cells were plated for 24 hours in medium supplemented with 5% FCS. On day 1, the peptide was added to the wells followed 1 hour later by the chemotherapeutic agents. […] The chemotherapeutic drugs were tested over 7 concentrations, covering as much as possible of the dose response curve of each individual drug. 24 hours later, the medium was exchanged and the cells incubated under the same conditions for another 48 hours. On day 4 the number of viable cells was determined by MTS assay.

[2] = system: cell lines derived from colon cancer and prostate cancer; experiment: MTS colorimetric proliferation assay, VIP antagonist with chemotherapeutic agents (Example I); assay type: cell-based; details: combination with stearyl-Nle17-neurotensis 6-11 VIP 7-28
Method: Assays were performed with cell lines derived from colon cancer and prostate cancer. Proliferation was assessed using the MTS colorimetric assay of mitochondrial function for living cells. The VIP antagonist (stearyl-Nle17-neurotensis 6-11 VIP 7-28) was used.

MCF-7 cells = experiment: MTT colorimetric assay, breast cancer cells (Example 6); assay type: cell-based; details: for Absorbance at 570 nM: MCF-7, MTT, 5 days
Method: The ability of VIP receptor antagonists to alter the growth of breast cancer cells was investigated in vitro using the MTT colorimetric. The semiautomated MTT assay measures reduction of a tetrazolium compound by tumor cells to formazan. The optical density at 570 nm was determined for 8 wells at each inhibitor concentration. Seeding densities were 5×10^4 cells/well and cells were grown in 96 well plates for 5 days.

MDA-MB231 xenografts = experiment: MDA-MB231 breast cancer xenografts in nude mice; assay type: in vivo, Balb/c nude mice; details: after 4 weeks; VIPhyb 10 μg/day s.c., Taxol 1.5 mg i.p. once; PBS control 1121 mm^3
Method: To test the proliferative aspects of VIPhybrid analogs in vivo, nude mice bearing breast cancer xenografts were utilized. Female athymic Balb/c nude mice, 4-5 weeks old, were housed in a pathogen-free temperature controlled isolation room and the diet consisted of autoclaved rodent chow and autoclaved water given ad libitum. MDA-MB231 cells (1×10^7) were injected into the right flank of each mouse subcutaneously. […] PBS (100 μl) or VIPhyb analogs (10 μg/day) were injected subcutaneously adjacent to the tumor. Taxol was injected once (1.5 mg i.p.) after 2 weeks. The tumor volume (height×width×depth) was determined twice weekly by calipers and recorded.

[3] = system: VIP receptor (glioblastoma cells); experiment: cAMP in glioblastoma cells, basal and VIP-stimulated; assay type: cell-based; details: 10 nM VIP
Source text: The effects of VIP receptor antagonists on glioblastoma cell lines were investigated.

[4] = biological target: T1, VIP receptor on U-87 cells (UniProt P32241 31-457, limits assumed); experiment: competition with 125I-VIP for binding to U-87 cells
T1 construct: whole, on cells; also called VIP1 receptor; VPAC1 receptor
T1 sequence (looked up): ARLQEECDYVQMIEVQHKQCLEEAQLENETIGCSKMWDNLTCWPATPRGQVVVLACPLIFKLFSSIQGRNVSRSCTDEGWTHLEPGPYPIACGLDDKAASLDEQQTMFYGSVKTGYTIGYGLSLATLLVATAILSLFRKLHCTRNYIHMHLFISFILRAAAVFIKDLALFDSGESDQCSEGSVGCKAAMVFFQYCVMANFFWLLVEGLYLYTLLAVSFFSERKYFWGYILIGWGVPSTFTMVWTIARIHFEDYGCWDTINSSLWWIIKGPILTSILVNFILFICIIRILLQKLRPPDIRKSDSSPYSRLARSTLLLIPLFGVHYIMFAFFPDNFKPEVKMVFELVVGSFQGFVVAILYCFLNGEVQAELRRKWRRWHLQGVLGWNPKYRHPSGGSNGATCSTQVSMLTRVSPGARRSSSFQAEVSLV

What does the source list for `Cl.Nc1ccn([C@@H]2O[C@H](CO)[C@@H](O)C2(F)F)c(=O)n1` [gemcitabine, 2′-deoxy-2′,2′-difluorocytidine hydrochloride]?
nature of the combined effect with SNH [1]: only additive; enhancement of the antiproliferative activity of the chemotherapeutic agent by the lipophilic VIP antagonist [2]: enhance the antiproliferative activity

What does the source list for `N.N.[Cl][Pt][Cl]` [cisplatin, cis-dichlorodiammineplatinum II]?
reduction of the IC50 of the chemotherapeutic agent by SNH [1]: 4 fold; nature of the combined effect with SNH [1]: synergistic; effect of the combination with the VIP antagonist [2]: synergistic

Which results are given for `COc1cccc2c1C(=O)c1c(O)c3c(c(O)c1C2=O)C[C@@](O)(C(=O)CO)C[C@@H]3O[C@H]1C[C@H](N)[C@H](O)[C@H](C)O1` [doxorubicine]?
nature of the combined effect with SNH [1]: less pronounced; effect of the combination with the VIP antagonist [2]: synergistic; enhancement of the antiproliferative activity of the chemotherapeutic agent by the lipophilic VIP antagonist [2]: enhance the antiproliferative activity

Which “Absorbance at 570 nM” value (MCF-7 cells; 1 μM) does the source give for “KPRRPYTDNYTRLRKQMAVKKYLNSILN [VIPhyb, earlier hybrid VIP antagonist: neurotensin 6-11 joined to VIP 7-28]” here?
The value was “.417 ± .064”.

And the “Absorbance at 570 nM” value (MCF-7 cells; 3 μM)?
Its value is “.353 ± .048”.

And the “Absorbance at 570 nM” value (MCF-7 cells; 10 μM)?
The value was “.317 ± .030”.

And the “inhibition of MCF-7 proliferation” value (MCF-7 cells; 10 μM, MTT assay)?
Its value is “significantly inhibited”.

And the “tumor volume (height×width×depth)” value (MDA-MB231 xenografts)?
Its value is 508 mm^3.

What about the “order of peptide potency, inhibition of VIP-stimulated cAMP” value [3] of the same molecule?
Its value is “(SN)VIPhybrid>VIP hybrid >PTC4495”.

`CCC1=C[C@@H]2CN(C1)Cc1c([nH]c3ccccc13)[C@@](C(=O)OC)(c1cc3c(cc1OC)N(C)[C@H]1[C@@](O)(C(=O)OC)[C@H](OC(C)=O)[C@]4(CC)C=CCN5CC[C@]31[C@@H]54)C2` [navelbine] was tested. Which “reduction of the IC50 of the chemotherapeutic agent by SNH” value [1] did it give?
Its value is “at least 2 fold”.

And the “nature of the combined effect with SNH” value [1]?
Its value is “synergistic”.

And the “effect of the combination with the VIP antagonist” value [2]?
Its value is “synergistic”.

What about the “enhancement of the antiproliferative activity of the chemotherapeutic agent by the lipophilic VIP antagonist” value [2] of the same molecule?
Its value is “enhance the antiproliferative activity”.

B1: (N-Stearyl-Norleucine17) VIPhybrid (peptide)
peptide: Stearoyl-KPRRPYTDNYTRLRKQ[Nle]AVKKYLNSILN-NH2
SMILES: CCCCCCCCCCCCCCCCCC(=O)N[C@@H](CCCCN)C(=O)N1CCC[C@H]1C(=O)N[C@@H](CCCNC(=N)N)C(=O)N[C@@H](CCCNC(=N)N)C(=O)N1CCC[C@H]1C(=O)N[C@@H](Cc1ccc(O)cc1)C(=O)N[C@H](C(=O)N[C@@H](CC(=O)O)C(=O)N[C@@H](CC(N)=O)C(=O)N[C@@H](Cc1ccc(O)cc1)C(=O)N[C@H](C(=O)N[C@@H](CCCNC(=N)N)C(=O)N[C@@H](CC(C)C)C(=O)N[C@@H](CCCNC(=N)N)C(=O)N[C@@H](CCCCN)C(=O)N[C@@H](CCC(N)=O)C(=O)N[C@@H](CCCC)C(=O)N[C@@H](C)C(=O)N[C@H](C(=O)N[C@@H](CCCCN)C(=O)N[C@@H](CCCCN)C(=O)N[C@@H](Cc1ccc(O)cc1)C(=O)N[C@@H](CC(C)C)C(=O)N[C@@H](CC(N)=O)C(=O)N[C@@H](CO)C(=O)N[C@H](C(=O)N[C@@H](CC(C)C)C(=O)N[C@@H](CC(N)=O)C(N)=O)[C@@H](C)CC)C(C)C)[C@@H](C)O)[C@@H](C)O
notes: Synthetic lipophilic VIP antagonist; also called (SN)VIPhybrid; SNVIPhybrid
With B1 as the molecule, how does the IC50 [4] read?
The IC50 was 500 nM.

B2: Neurotensis 6-11 VIP7-28 (VIPhybrid) (peptide)
peptide: KPRRPYTDNYTRLRKQMAVKKYLNSILN
modifications: ends and bridges not checked
How did the IC50 [4] turn out when B2 was run?
Its IC50 is 70 nM.
